Laboratory results from the supplement of paper PMC10307832.

Compound: Cc1cc([C@@H](C)Nc2ccccc2C(=O)O)c2nc(N3CCOCC3)cc(=O)n2c1 [AZD6482] + Cc1cc(Nc2cc(N3CCN(C)CC3)nc(Sc3ccc(NC(=O)C4CC4)cc3)n2)n[nH]1 [Tozasertib] (partner 0.1 µM)
Assay: relative viability (nuclei count vs DMSO), 5 days (fraction); higher = more cells survive
Conditions: first compound 0.08 µM
In short: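 Lung cancer cell lines were seeded in 1536-well plates and dosed by pin tool the next day, with either a single drug or a fixed anchor-drug dose combined with five library-drug doses (not always all listed) spaced in √10 steps. Five days later, one step fixed the cells and stained their nuclei (final 0.05% Triton X-100, 1% formaldehyde, 1 ug/ml Hoechst), and nuclei were counted on 4× images. Relative viability is the nuclei count in treated wells divided by the count in vehicle wells, and each value is the median of duplicate plates.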

Cell Line	relative viability
NCI-H1915	0.453
HCC-827	0.379
LXF-289	0.178
NCI-H23	0.489
NCI-H647	0.23
CAL-12T	0.303
NCI-H1651	0.68
EPLC-272H	0.185
NCI-H1355	0.462
NCI-H3122	0.355
NCI-H1437	0.393
NCI-H1755	0.608
NCI-H2023	0.367
HCC-15	0.344
NCI-H1793	0.256
PC-14	0.556
EKVX	0.337
LC-2-ad	0.392
NCI-H1944	0.238
NCI-H1975	0.624
RERF-LC-KJ	0.447
ABC-1	0.168
NCI-H358	0.0814
NCI-H650	0.722
PC-3 [JPC-3]	0.785

Same assay, conditions: first compound 0.253 µM

Cell Line	relative viability
NCI-H441	0.545
NCI-H661	0.362
NCI-H1734	0.263
NCI-H460	0.288
NCI-H2347	0.388
SK-LU-1	0.334
NCI-H1395	0.646
201T	0.889
NCI-H1915	0.346
HCC-827	0.405
LXF-289	0.135
NCI-H23	0.302
NCI-H647	0.26
CAL-12T	0.338
NCI-H1651	0.647
EPLC-272H	0.111
NCI-H2228	0.257

Cell Line	relative viability
NCI-H1355	0.419
NCI-H3122	0.348
NCI-H1437	0.408
NCI-H1755	0.537
NCI-H2023	0.336
HCC-15	0.332
NCI-H1793	0.189
PC-14	0.61
EKVX	0.296
LC-2-ad	0.428
NCI-H1944	0.242
NCI-H1975	0.717
RERF-LC-KJ	0.513
ABC-1	0.158
NCI-H358	0.107
PC-3 [JPC-3]	0.793

Same assay, conditions: first compound 0.8 µM

Cell Line	relative viability
NCI-H441	0.632
NCI-H661	0.407
NCI-H1734	0.269
NCI-H460	0.135
NCI-H2347	0.364
SK-LU-1	0.295
NCI-H1395	0.584
201T	0.88
NCI-H1915	0.417
HCC-827	0.422
LXF-289	0.171
NCI-H23	0.398
NCI-H647	0.192
CAL-12T	0.37
NCI-H1651	0.598
EPLC-272H	0.211
NCI-H2228	0.235

Cell Line	relative viability
NCI-H1355	0.43
NCI-H3122	0.344
NCI-H1437	0.301
NCI-H1755	0.688
NCI-H2023	0.286
HCC-15	0.377
NCI-H1793	0.219
PC-14	0.619
EKVX	0.344
LC-2-ad	0.452
NCI-H1944	0.217
NCI-H1975	0.701
RERF-LC-KJ	0.49
ABC-1	0.155
NCI-H358	0.104
NCI-H650	0.751
PC-3 [JPC-3]	0.892

Same assay, conditions: first compound 2.53 µM

Cell Line	relative viability
NCI-H661	0.372
NCI-H1734	0.217
NCI-H460	0.537
NCI-H2347	0.357
SK-LU-1	0.242
NCI-H1395	0.54
201T	0.766
NCI-H1915	0.426
HCC-827	0.342
LXF-289	0.207
NCI-H23	0.358
NCI-H647	0.145
CAL-12T	0.228
NCI-H1651	0.565
EPLC-272H	0.277
NCI-H2228	0.287

Cell Line	relative viability
NCI-H1355	0.435
NCI-H1437	0.325
NCI-H1755	0.478
NCI-H2023	0.289
HCC-15	0.37
NCI-H1793	0.226
PC-14	0.613
EKVX	0.362
LC-2-ad	0.5
NCI-H1944	0.206
NCI-H1975	0.629
RERF-LC-KJ	0.465
ABC-1	0.201
NCI-H358	0.0733
NCI-H650	0.588
PC-3 [JPC-3]	0.78

Same assay, conditions: first compound 8 µM

Cell Line	relative viability
NCI-H441	0.527
NCI-H661	0.383
NCI-H1734	0.24
NCI-H460	0.389
NCI-H2347	0.371
SK-LU-1	0.261
NCI-H1395	0.44
201T	0.875
NCI-H1915	0.371
HCC-827	0.287
LXF-289	0.122
NCI-H23	0.228
NCI-H647	0.23
CAL-12T	0.218
NCI-H1651	0.592
EPLC-272H	0.157
NCI-H2228	0.155
NCI-H1355	0.441
NCI-H3122	0.351
